From patent US5250546A, “Amino-alcohol derivatives and processes for their preparation” (Nippon Chemiphar Co., Ltd., priority 1984, dated 1993)

Columns and labels:
[1] = Acute toxicity, up-and-down method; conditions: mouse, in vivo; iv (caudal vein), ddN male mice
Experimental: Using ddN male mice, the acute toxicity level of each test compound was determined in accordance with an up-and-down method. Some of the test compounds used were dissolved in physiological saline and administered through the caudal vein.

[2] = tested on: glutamic acid at neuromuscular junctions of crayfish (opener muscles of the first walking legs); assay: Blocking effects against glutamic acid at neuromuscular junctions of crayfish (L-glutamic acid-induced depolarization); type: cell-based; conditions: 5 min; suppression rate of depolarization by L-glutamic acid (10^-4 M); 5-minute pretreatment with test compound 2×10^-4 M
Text: The opener muscles of the first walking legs of crayfish were used as experimental materials. The neuromuscular sample was held in a bath in which a physiological solution [composition (mM): NaCl (195), CaCl2 (18), KCl (5.4), tris-maleate buffer (pH 7.5; 10), glucose (11)] for use with the crayfish was perfused at room temperature and at a constant flow rate. A glass micro-electrode filled with a 3M-KCl solution was inserted in a central part of the muscle fiber to intracellularly record changes in the potential of the muscular cell membrane.
The blocking effect of each test compound against glutamic acid was evaluated in terms of the suppression rate to depolarization which was induced by bath-applying L-glutamic acid (10^-4 M) in a 5-minute pretreatment with a solution of the test compound (2×10^-4 M).

[3] = tested on: anemic decerebrate rigidity (Wistar male rats); assay: Effects on anemic decerebrate rigidity (EMG of M. triceps brachii); type: in vivo; conditions: Rattus norvegicus, iv, 10 min; 3 mg/kg through the femoral vein; 10 minutes after administration; read-out: Suppression rate (rigidity, EMG pulse area)
Experimental: An anemic decerebrate rigidity sample was prepared principally in accordance with the procedure of Fukuda et al. [Japan. […] Wistar male rats (body weight: 270 to 350 g) were held on their backs and incised at their cervices under etherization. After the trachea and common carotid arteries were exposed, the trachea was cannulated and the bilateral common carotid arteries and esophagus were then double-ligated and cut. Thereafter, its occipital bone was exposed through which a circular hole was bored to double-ligate the centrally extending basilar artery. As each rat started coming out of anesthetization, its front limbs became rigid. Measurement was conducted by recording electromyographic (EMG) response from the muscle of the forelimb (M. triceps brachii) of the rat in the rigid state. The EMG pulses were converted to accumulated values every 10 seconds and recorded as a histogram on a recorder.
The effect of each test compound on the rigidity was evaluated in terms of the suppression rate. This rate was calculated first by determining the area of a decreased EMG pulse part on the histogram upon passage of 10 minutes after administration of a physiological saline solution of each test compound (3 mg/kg) through the femoral vein and then in accordance with the following equation.
A: EMG pulse area when no test compound was administered (control).

SMILES | LD50 [1] | inhibition at 200 µM [2] | inhibition in vivo at 3 mg/kg [3]
CC(C)C[C@H](NCCCN1CCCCC1)[C@@H](O)c1ccccc1.Cl.Cl [Compound 19, (1S,2S)-4-methyl-1-phenyl-2-(3-piperidinopropylamino)pentan-1-ol dihydrochloride] | 28.4 mg/kg | 100% | 
CC(C)CC[C@H](NCCN1CCCCC1)[C@H](O)c1ccccc1.Cl.Cl (racemic) [Compound 41, (1RS,2SR)-5-methyl-1-phenyl-2-(2-piperidinoethylamino)hexan-1-ol dihydrochloride] | 29.5 mg/kg | 94% | 23.5%
CC(C)CC[C@@H](NCCCN1CCCCC1)[C@H](O)c1ccccc1.Cl.Cl (racemic) [Compound 22, (1RS,2RS)-5-methyl-1-phenyl-2-(3-piperidinopropylamino)hexan-1-ol dihydrochloride] | 19 mg/kg | 100% | 42.3%
CC(C)C[C@H](NCCCN1CCCCC1)[C@H](O)c1ccccc1.Cl.Cl [Compound 17, (1R,2S)-4-methyl-1-phenyl-2-(3-piperidinopropylamino)pentan-1-ol dihydrochloride] | 15.4 mg/kg | 100% | 
CC(C)CC[C@H](NCCCN1CCCCCC1)[C@H](O)c1ccccc1.Cl.Cl (racemic) [Compound 45, (1RS,2SR)-5-methyl-2-[3-(perhydroazepin-1-yl)propylamino]-1-phenylhexan-1-ol dihydrochloride] | 12.8 mg/kg | 100% | 90.5%
CCCCC[C@H](NCCCN1CCCCC1)[C@H](O)c1ccccc1.Cl.Cl (racemic) [Compound 5, (1RS,2SR)-1-phenyl-2-(3-piperidinopropylamino)heptan-1-ol dihydrochloride] | 22.1 mg/kg | 100% | 18.5%
CC(C)CC[C@H](NCCCN1CCCCC1)[C@H](O)c1ccccc1.Cl.Cl (racemic) [Compound 21, (1RS,2SR)-5-methyl-1-phenyl-2-(3-piperidinopropylamino)hexan-1-ol dihydrochloride] | 13.6 mg/kg | 100% | 65.9%
CC(C)CC[C@H](NCCCN1CCCC1)[C@H](O)c1ccccc1.Cl.Cl (racemic) [Compound 35, (1RS,2SR)-5-methyl-1-phenyl-2-(3-pyrrolidinopropylamino)hexan-1-ol dihydrochloride] | 26.7 mg/kg | 100% | 21.6%
CCCC[C@H](NCCCN1CCCCC1)[C@H](O)c1ccccc1.Cl.Cl (racemic) [Compound 3, (1RS,2SR)-1-phenyl-2-(3-piperidinopropylamino)hexan-1-ol dihydrochloride] | 19.2 mg/kg | 99% | 17.5%
CC(C)CC[C@H](NCCN1CCCC1)[C@H](O)c1ccccc1.Cl.Cl (racemic) [Compound 43, (1RS,2SR)-5-methyl-1-phenyl-2-(2-pyrrolidinoethylamino)hexan-1-ol dihydrochloride] | 31.9 mg/kg | 95% | 16.1%
